The supplement of paper PMC10307832

Legend:
Test in all cases: relative viability (nuclei count vs DMSO), 5 days (fraction); higher = more cells survive
Sunitinib + Navitoclax = compound: CCN(CC)CCNC(=O)c1c(C)[nH]c(/C=C2\C(=O)Nc3ccc(F)cc32)c1C [Sunitinib] + CC1(C)CCC(c2ccc(Cl)cc2)=C(CN2CCN(c3ccc(C(=O)NS(=O)(=O)c4ccc(N[C@H](CCN5CCOCC5)CSc5ccccc5)c(S(=O)(=O)C(F)(F)F)c4)cc3)CC2)C1 [Navitoclax] (partner 0.5 µM)
Procedure, shortened: (§1)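 Lung cancer cell lines were seeded in 1536-well plates and dosed by pin tool the next day, with either a single drug or a fixed anchor-drug dose combined with five library-drug doses (not always all listed) spaced in √10 steps. Five days later, one step fixed the cells and stained their nuclei (final 0.05% Triton X-100, 1% formaldehyde, 1 ug/ml Hoechst), and nuclei were counted on 4× images. Relative viability is the nuclei count in treated wells divided by the count in vehicle wells, and each value is the median of duplicate plates.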

Sunitinib + Crizotinib = compound: CCN(CC)CCNC(=O)c1c(C)[nH]c(/C=C2\C(=O)Nc3ccc(F)cc32)c1C [Sunitinib] + C[C@@H](Oc1cc(-c2cnn(C3CCNCC3)c2)cnc1N)c1c(Cl)ccc(F)c1Cl [Crizotinib] (partner 1 µM)
Procedure, shortened: as §1

Sunitinib + Vorinostat = compound: CCN(CC)CCNC(=O)c1c(C)[nH]c(/C=C2\C(=O)Nc3ccc(F)cc32)c1C [Sunitinib] + O=C(CCCCCCC(=O)Nc1ccccc1)NO [Vorinostat] (partner 1 µM)
Procedure, shortened: as §1

Sunitinib + Dasatinib = compound: CCN(CC)CCNC(=O)c1c(C)[nH]c(/C=C2\C(=O)Nc3ccc(F)cc32)c1C [Sunitinib] + Cc1nc(Nc2ncc(C(=O)Nc3c(C)cccc3Cl)s2)cc(N2CCN(CCO)CC2)n1 [Dasatinib] (partner 0.075 µM)
Procedure, shortened: as §1

Cell Line | relative viability (Sunitinib + Navitoclax; first compound 0.02 µM) | relative viability (Sunitinib + Navitoclax; first compound 0.06325 µM) | relative viability (Sunitinib + Navitoclax; first compound 0.2 µM) | relative viability (Sunitinib + Navitoclax; first compound 0.6325 µM) | relative viability (Sunitinib + Navitoclax; first compound 2 µM) | relative viability (Sunitinib + Crizotinib; first compound 0.02 µM) | relative viability (Sunitinib + Crizotinib; first compound 0.06325 µM) | relative viability (Sunitinib + Crizotinib; first compound 0.2 µM) | relative viability (Sunitinib + Crizotinib; first compound 0.6325 µM) | relative viability (Sunitinib + Crizotinib; first compound 2 µM) | relative viability (Sunitinib + Vorinostat; first compound 0.02 µM) | relative viability (Sunitinib + Vorinostat; first compound 0.06325 µM) | relative viability (Sunitinib + Vorinostat; first compound 0.2 µM) | relative viability (Sunitinib + Vorinostat; first compound 0.6325 µM) | relative viability (Sunitinib + Vorinostat; first compound 2 µM) | relative viability (Sunitinib + Dasatinib; first compound 0.02 µM) | relative viability (Sunitinib + Dasatinib; first compound 0.06325 µM) | relative viability (Sunitinib + Dasatinib; first compound 0.2 µM) | relative viability (Sunitinib + Dasatinib; first compound 0.6325 µM) | relative viability (Sunitinib + Dasatinib; first compound 2 µM)
NCI-H1650 | 1.48 | 1.18 | 1.4 | 1.34 | 1.33 | 0.821 | 0.903 | 1.14 | 0.991 | 0.829 | 0.558 | 0.606 | 0.752 | 0.659 | 0.582 | 0.321 | 0.337 | 0.309 | 0.358 | 0.268
HCC-78 | 0.756 | – | 0.684 | – | 0.869 | 0.299 | – | 0.348 | – | 0.365 | 0.427 | 0.418 | 0.531 | 0.481 | 0.465 | 0.39 | 0.313 | 0.329 | 0.315 | 0.358
UMC-11 | 0.302 | 0.307 | 0.367 | 0.281 | 0.272 | 0.578 | 0.569 | 0.571 | 0.692 | 0.556 | 0.329 | 0.373 | 0.401 | 0.349 | 0.388 | 0.454 | 0.525 | 0.584 | 0.525 | 0.424
SK-MES-1 | 1.18 | 1.34 | 1.43 | 1.3 | 1.3 | 0.928 | 0.996 | 1.07 | 1.12 | 0.959 | 1.07 | 1.09 | 1.24 | 1.29 | 1.08 | 0.354 | 0.457 | 0.341 | 0.319 | 0.308
NCI-H1734 | 0.785 | 0.815 | 0.954 | 0.846 | 0.906 | 0.645 | 0.738 | 0.866 | 0.746 | 0.724 | 0.694 | 0.91 | 1.05 | 0.782 | 0.782 | 0.456 | 0.43 | 0.503 | 0.451 | 0.46
NCI-H1437 | 1.06 | 1.2 | 1.19 | 1.13 | 1.16 | 0.979 | 0.959 | 1.09 | 0.909 | 0.899 | 0.804 | 0.839 | 0.876 | 0.887 | – | 0.489 | 0.418 | 0.478 | 0.39 | 0.412
HOP-62 | 1.09 | 1.16 | 1.17 | 1.09 | 0.942 | 0.862 | 1.23 | 0.971 | – | 1.03 | 0.675 | 0.876 | 0.744 | 0.761 | 0.838 | 0.616 | 0.744 | 0.826 | 0.777 | 0.682
HCC-15 | 0.705 | 0.765 | – | 0.744 | 0.691 | 0.761 | 0.84 | 0.958 | 0.86 | 0.859 | 0.905 | 0.93 | 0.984 | 0.789 | 0.85 | 0.549 | 0.709 | 0.726 | 0.66 | 0.598
NCI-H596 | 0.987 | 0.802 | 1.14 | 0.945 | 0.956 | 0.935 | 0.957 | 1.01 | – | 0.81 | 0.734 | 0.541 | 0.594 | 0.637 | 0.564 | 0.599 | 0.731 | 0.709 | 0.709 | 0.467
NCI-H322M | 1.25 | 1.18 | 1.3 | 1.25 | 1.34 | 0.845 | 0.891 | 0.951 | 0.891 | 1.08 | 0.9 | 0.807 | 0.931 | 0.847 | 0.702 | 0.257 | 0.264 | 0.293 | 0.265 | 0.253
NCI-H2023 | – | 1.05 | 1.11 | 1.06 | 0.975 | 0.628 | 0.67 | 0.792 | 0.654 | 0.667 | 0.575 | 0.585 | 0.906 | 0.812 | 0.488 | 0.459 | 0.582 | 0.628 | 0.707 | 0.642
BEN | 0.0567 | 0.0707 | 0.072 | 0.0591 | 0.0799 | 0.835 | 0.956 | 1.18 | 0.93 | 0.955 | 0.535 | 0.637 | 0.571 | 0.574 | 0.533 | 0.31 | 0.301 | 0.277 | 0.38 | 0.309
LOU-NH91 | 0.727 | 0.665 | 0.746 | 0.734 | 0.564 | 0.733 | 0.732 | 0.789 | 0.71 | 0.746 | 0.928 | 0.96 | 0.997 | 1 | 0.884 | 0.576 | 0.564 | 0.615 | 0.648 | 0.644
HCC-366 | 0.963 | 1.06 | – | 1.05 | 0.971 | 0.559 | 0.519 | 1.02 | 0.593 | 0.551 | 0.326 | 0.388 | 0.487 | 0.442 | 0.468 | 0.526 | 0.645 | 0.622 | 0.668 | 0.574
PC-14 | 0.987 | 0.999 | 1.1 | 0.996 | 0.958 | – | 0.863 | 1.08 | 0.921 | 0.816 | 0.689 | 0.74 | 0.853 | 0.834 | 0.665 | 0.291 | 0.232 | 0.269 | 0.385 | 0.261
NCI-H441 | – | 0.684 | 0.946 | 0.808 | 0.368 | 0.686 | 0.802 | 0.831 | 0.858 | – | 0.67 | 0.833 | – | 0.984 | 0.85 | 0.545 | 0.684 | 0.714 | 0.763 | 0.658
NCI-H1993 | 0.923 | 1.01 | – | 0.872 | 0.905 | 0.846 | 0.741 | 0.872 | 0.966 | 0.74 | 0.857 | 0.727 | 0.911 | 0.747 | 0.9 | 0.735 | 0.545 | 0.779 | 0.654 | 0.645
NCI-H2126 | 0.833 | 0.865 | 0.904 | 0.871 | 0.798 | 1.01 | 1.04 | 1.07 | 1.01 | 1.01 | 0.73 | 0.906 | 0.857 | 0.808 | 0.84 | 0.601 | 0.67 | 0.636 | 0.719 | 0.638
COR-L23 | 0.966 | 1.08 | 1.04 | 1.21 | 1.15 | 0.663 | 0.748 | 0.799 | 0.761 | 0.727 | 0.457 | 0.515 | 0.484 | 0.464 | 0.503 | 0.489 | 0.522 | 0.622 | 0.533 | 0.542
NCI-H520 | – | 1.11 | 1.21 | 1.02 | 0.897 | 0.83 | 0.699 | 0.856 | 0.63 | 0.601 | 0.694 | 0.793 | 0.569 | 0.674 | 0.578 | 0.226 | 0.186 | 0.18 | 0.224 | 0.217
COR-L 105 | 0.752 | 0.868 | 0.832 | 0.921 | 0.959 | 0.513 | 0.811 | 0.995 | 0.894 | 0.695 | 0.856 | 0.646 | 0.817 | 0.797 | 0.744 | 0.316 | 0.361 | 0.286 | 0.379 | 0.543
HCC-827 | 1.01 | 1.05 | 1.04 | 1.01 | 0.978 | 0.911 | 0.964 | 0.965 | 0.939 | 0.947 | 0.843 | 0.861 | 0.668 | 0.875 | 0.714 | 0.259 | 0.284 | 0.336 | 0.279 | 0.342
NCI-H2228 | 0.87 | 0.792 | 1 | 0.96 | 0.524 | 0.495 | 0.553 | 0.435 | 0.583 | 0.351 | 0.412 | 0.705 | 0.626 | 1.03 | 0.764 | 0.526 | 0.607 | 0.613 | 0.494 | 0.408
